Measured values reported in patent publication US20020111274A1, “1-alkyl-3-[1-(substituted phenyl) benzotriazol-6-yl] uracils” (BASF Aktiengesellschaft, priority 2000, published 2002).

Legend:
Design in all cases: scale not given here
SETVI Foxtail, Green [1] = test: Preemergence herbicidal evaluation, SETVI; type: in vivo, Setaria viridis, (L.) Beau; settings: preemergence
Text: (§1) The preemergence herbicidal activity of the test compounds of the present invention is exemplified by the following tests in which the seeds of a variety of monocotyledonous and dicotyledonous plants are separately mixed with potting soil and planted on top of approximately one inch of soil in separate pint cups. […] The treated cups are then placed on greenhouse benches, watered and cared for in accordance with conventional greenhouse procedures. From four to five weeks after treatment, the tests are terminated and each cup is examined and rated according to the rating system provided in Example 46.

ZEAMX Corn, Field [2] = test: Postemergence herbicidal evaluation, ZEAMX; type: in vivo, Zea mays, L. (Sammel-Bezeichnung); settings: postemergence spray, rated about two-three weeks after treatment
Experimental: (§2) In this evaluation, seedling plants are grown in jiffy flats for about two weeks. The test compounds are dispersed in 80/20 acetone/water mixtures containing 1.0% SUN-IT® II, a methylated seed oil, in sufficient quantities to provide the equivalent of about 0.006 kg to 0.400 kg per hectare of active compound when applied to the plants through a spray nozzle operating at 40 psi for a predetermined time. After spraying, the plants are placed on greenhouse benches and are cared for in accordance with conventional greenhouse procedures. Approximately two - three weeks after treatment, the seedling plants are examined and rated according to the rating system set forth below. Where more than one test is involved for a given compound, the data are averaged.

ZEAMX Corn, Field [3] = test: Preemergence herbicidal evaluation, ZEAMX; type: in vivo, Zea mays, L. (Sammel-Bezeichnung); settings: preemergence
Text: as §1

[4] = system: CHEAL Lambsquarters, Common; test: Preemergence herbicidal evaluation, CHEAL; type: in vivo, Chenopodium album, L.; settings: preemergence
Text: as §1

[5] = system: TRZAWR Wheat, Winter, cv Riband; test: Postemergence herbicidal evaluation, TRZAWR; type: in vivo, Triticum aestivum; settings: postemergence spray, rated about two-three weeks after treatment
Experimental: as §2

ECHOG Barnyardgrass [6] = test: Preemergence herbicidal evaluation, ECHOG; type: in vivo, Echinochloa crus-galli, (L.) Beau; settings: preemergence
Text: as §1

ABUTH Velvetleaf [7] = test: Postemergence herbicidal evaluation, ABUTH; type: in vivo, Abutilon theophrasti, Medic.; settings: postemergence spray, rated about two-three weeks after treatment
Experimental: as §2

[8] = system: TRZAWR Wheat, Winter, cv Riband; test: Preemergence herbicidal evaluation, TRZAWR; type: in vivo, Triticum aestivum; settings: preemergence
Text: as §1

GLXMAW Soybean, Williams [9] = test: Preemergence herbicidal evaluation, GLXMAW; type: in vivo, Glycine max, (L.) Merr. cv Williams; settings: preemergence
Text: as §1

CASOB Sicklepod [10] = test: Preemergence herbicidal evaluation, CASOB; type: in vivo, Cassia obtusifolia, L.; settings: preemergence
Text: as §1

AMBEL Ragweed, Common [11] = test: Postemergence herbicidal evaluation, AMBEL; type: in vivo, Ambrosia artemisifolia, L.; settings: postemergence spray, rated about two-three weeks after treatment
Experimental: as §2

ORYSAT Rice, Tebonnet [12] = test: Postemergence herbicidal evaluation, ORYSAT; type: in vivo, Oryza sativa, (L.); settings: postemergence spray, rated about two-three weeks after treatment
Experimental: as §2

GLXMAW Soybean, Williams [13] = test: Postemergence herbicidal evaluation, GLXMAW; type: in vivo, Glycine max, (L.) Merr. cv Williams; settings: postemergence spray, rated about two-three weeks after treatment
Experimental: as §2

CASOB Sicklepod [14] = test: Postemergence herbicidal evaluation, CASOB; type: in vivo, Cassia obtusifolia, L.; settings: postemergence spray, rated about two-three weeks after treatment
Experimental: as §2

ECHOG Barnyardgrass [15] = test: Postemergence herbicidal evaluation, ECHOG; type: in vivo, Echinochloa crus-galli, (L.) Beau; settings: postemergence spray, rated about two-three weeks after treatment
Experimental: as §2

[16] = system: CHEAL Lambsquarters, Common; test: Postemergence herbicidal evaluation, CHEAL; type: in vivo, Chenopodium album, L.; settings: postemergence spray, rated about two-three weeks after treatment
Experimental: as §2

ORYSAT Rice, Tebonnet [17] = test: Preemergence herbicidal evaluation, ORYSAT; type: in vivo, Oryza sativa, (L.); settings: preemergence
Text: as §1

[18] = system: IPOHE Morningglory, Ivyleaf; test: Postemergence herbicidal evaluation, IPOHE; type: in vivo, Ipomoea hederacea, (L.) Jacq.; settings: postemergence spray, rated about two-three weeks after treatment
Experimental: as §2

AMBEL Ragweed, Common [19] = test: Preemergence herbicidal evaluation, AMBEL; type: in vivo, Ambrosia artemisifolia, L.; settings: preemergence
Text: as §1

ABUTH Velvetleaf [20] = test: Preemergence herbicidal evaluation, ABUTH; type: in vivo, Abutilon theophrasti, Medic.; settings: preemergence
Text: as §1

GALAP Galium [21] = test: Preemergence herbicidal evaluation, GALAP; type: in vivo, Galium aparine; settings: preemergence
Text: as §1

[22] = system: IPOHE Morningglory, Ivyleaf; test: Preemergence herbicidal evaluation, IPOHE; type: in vivo, Ipomoea hederacea, (L.) Jacq.; settings: preemergence
Text: as §1

GALAP Galium [23] = test: Postemergence herbicidal evaluation, GALAP; type: in vivo, Galium aparine; settings: postemergence spray, rated about two-three weeks after treatment
Experimental: as §2

SETVI Foxtail, Green [24] = test: Postemergence herbicidal evaluation, SETVI; type: in vivo, Setaria viridis, (L.) Beau; settings: postemergence spray, rated about two-three weeks after treatment
Experimental: as §2

## COc1ccccc1-n1nnc2cc(F)c(-n3c(=O)cc(C(F)(F)F)n(C)c3=O)cc21 [Example 16, 3-[5-Fluoro-1-(2-Methoxyphenyl)-1H-1,2,3-Benzotriazol-6-yl]-1-Methyl-6-(Trifluoromethyl)-2,4(1H,3H)-Pyrmidinedione]
SETVI Foxtail, Green [1]; rate 0.016 kg/ha
  SETVI herbicidal rating: 9.0
SETVI Foxtail, Green [1]; rate 0.032 kg/ha
  SETVI herbicidal rating: 9.0
SETVI Foxtail, Green [1]; rate 0.062 kg/ha
  SETVI herbicidal rating: 9.0
SETVI Foxtail, Green [1]; rate 0.125 kg/ha
  SETVI herbicidal rating: 9.0
ZEAMX Corn, Field [2]; 0.008 kg/ha
  Postemergence herbicidal rating ZEAMX: 5.5
ZEAMX Corn, Field [2]; 0.016 kg/ha
  Postemergence herbicidal rating ZEAMX: 6.0
ZEAMX Corn, Field [2]; 0.032 kg/ha
  Postemergence herbicidal rating ZEAMX: 6.0
ZEAMX Corn, Field [2]; 0.062 kg/ha
  Postemergence herbicidal rating ZEAMX: 6.0
ZEAMX Corn, Field [3]; rate 0.016 kg/ha
  ZEAMX herbicidal rating: 8.0
ZEAMX Corn, Field [3]; rate 0.032 kg/ha
  ZEAMX herbicidal rating: 7.0
ZEAMX Corn, Field [3]; rate 0.062 kg/ha
  ZEAMX herbicidal rating: 8.0
ZEAMX Corn, Field [3]; rate 0.125 kg/ha
  ZEAMX herbicidal rating: 8.0
[4]; rate 0.016 kg/ha
  CHEAL herbicidal rating: 9.0
[4]; rate 0.032 kg/ha
  CHEAL herbicidal rating: 9.0
[4]; rate 0.062 kg/ha
  CHEAL herbicidal rating: 9.0
[4]; rate 0.125 kg/ha
  CHEAL herbicidal rating: 9.0
[5]; 0.008 kg/ha
  Postemergence herbicidal rating TRZAWR: 2.5
[5]; 0.016 kg/ha
  Postemergence herbicidal rating TRZAWR: 3.0
[5]; 0.032 kg/ha
  Postemergence herbicidal rating TRZAWR: 3.5
[5]; 0.062 kg/ha
  Postemergence herbicidal rating TRZAWR: 5.5
ECHOG Barnyardgrass [6]; rate 0.016 kg/ha
  ECHCG herbicidal rating: 9.0
ECHOG Barnyardgrass [6]; rate 0.032 kg/ha
  ECHCG herbicidal rating: 9.0
ECHOG Barnyardgrass [6]; rate 0.062 kg/ha
  ECHCG herbicidal rating: 9.0
ECHOG Barnyardgrass [6]; rate 0.125 kg/ha
  ECHCG herbicidal rating: 9.0
ABUTH Velvetleaf [7]; 0.008 kg/ha
  Postemergence herbicidal rating ABUTH: 9.0
ABUTH Velvetleaf [7]; 0.016 kg/ha
  Postemergence herbicidal rating ABUTH: 9.0
ABUTH Velvetleaf [7]; 0.032 kg/ha
  Postemergence herbicidal rating ABUTH: 9.0
ABUTH Velvetleaf [7]; 0.062 kg/ha
  Postemergence herbicidal rating ABUTH: 9.0
[8]; rate 0.016 kg/ha
  TRZAWR herbicidal rating: 6.0
[8]; rate 0.032 kg/ha
  TRZAWR herbicidal rating: 8.0
[8]; rate 0.062 kg/ha
  TRZAWR herbicidal rating: 8.0
[8]; rate 0.125 kg/ha
  TRZAWR herbicidal rating: 9.0
GLXMAW Soybean, Williams [9]; rate 0.016 kg/ha
  GLXMAW herbicidal rating: 9.0
GLXMAW Soybean, Williams [9]; rate 0.032 kg/ha
  GLXMAW herbicidal rating: 9.0
GLXMAW Soybean, Williams [9]; rate 0.062 kg/ha
  GLXMAW herbicidal rating: 9.0
GLXMAW Soybean, Williams [9]; rate 0.125 kg/ha
  GLXMAW herbicidal rating: 9.0
CASOB Sicklepod [10]; rate 0.016 kg/ha
  CASOB herbicidal rating: 0.0
CASOB Sicklepod [10]; rate 0.032 kg/ha
  CASOB herbicidal rating: 0.0
CASOB Sicklepod [10]; rate 0.062 kg/ha
  CASOB herbicidal rating: 9.0
CASOB Sicklepod [10]; rate 0.125 kg/ha
  CASOB herbicidal rating: 9.0
AMBEL Ragweed, Common [11]; 0.008 kg/ha
  Postemergence herbicidal rating AMBEL: 2.0
AMBEL Ragweed, Common [11]; 0.016 kg/ha
  Postemergence herbicidal rating AMBEL: 9.0
AMBEL Ragweed, Common [11]; 0.032 kg/ha
  Postemergence herbicidal rating AMBEL: 9.0
AMBEL Ragweed, Common [11]; 0.062 kg/ha
  Postemergence herbicidal rating AMBEL: 9.0
ORYSAT Rice, Tebonnet [12]; 0.008 kg/ha
  Postemergence herbicidal rating ORYSAT: 2.5
ORYSAT Rice, Tebonnet [12]; 0.016 kg/ha
  Postemergence herbicidal rating ORYSAT: 3.0
ORYSAT Rice, Tebonnet [12]; 0.032 kg/ha
  Postemergence herbicidal rating ORYSAT: 3.0
ORYSAT Rice, Tebonnet [12]; 0.062 kg/ha
  Postemergence herbicidal rating ORYSAT: 4.0
GLXMAW Soybean, Williams [13]; 0.008 kg/ha
  Postemergence herbicidal rating GLXMAW: 5.0
GLXMAW Soybean, Williams [13]; 0.016 kg/ha
  Postemergence herbicidal rating GLXMAW: 5.0
GLXMAW Soybean, Williams [13]; 0.032 kg/ha
  Postemergence herbicidal rating GLXMAW: 6.0
GLXMAW Soybean, Williams [13]; 0.062 kg/ha
  Postemergence herbicidal rating GLXMAW: 7.5
CASOB Sicklepod [14]; 0.008 kg/ha
  Postemergence herbicidal rating CASOB: 6.0
CASOB Sicklepod [14]; 0.016 kg/ha
  Postemergence herbicidal rating CASOB: 6.0
CASOB Sicklepod [14]; 0.032 kg/ha
  Postemergence herbicidal rating CASOB: 6.0
CASOB Sicklepod [14]; 0.062 kg/ha
  Postemergence herbicidal rating CASOB: 9.0
ECHOG Barnyardgrass [15]; 0.008 kg/ha
  Postemergence herbicidal rating ECHCG: 2.0
ECHOG Barnyardgrass [15]; 0.016 kg/ha
  Postemergence herbicidal rating ECHCG: 2.0
ECHOG Barnyardgrass [15]; 0.032 kg/ha
  Postemergence herbicidal rating ECHCG: 3.0
ECHOG Barnyardgrass [15]; 0.062 kg/ha
  Postemergence herbicidal rating ECHCG: 5.0
[16]; 0.008 kg/ha
  Postemergence herbicidal rating CHEAL: 5.0
[16]; 0.016 kg/ha
  Postemergence herbicidal rating CHEAL: 5.0
[16]; 0.032 kg/ha
  Postemergence herbicidal rating CHEAL: 6.0
[16]; 0.062 kg/ha
  Postemergence herbicidal rating CHEAL: 8.0
ORYSAT Rice, Tebonnet [17]; rate 0.016 kg/ha
  ORYSAT herbicidal rating: 7.0
ORYSAT Rice, Tebonnet [17]; rate 0.032 kg/ha
  ORYSAT herbicidal rating: 7.0
ORYSAT Rice, Tebonnet [17]; rate 0.062 kg/ha
  ORYSAT herbicidal rating: 9.0
ORYSAT Rice, Tebonnet [17]; rate 0.125 kg/ha
  ORYSAT herbicidal rating: 9.0
[18]; 0.008 kg/ha
  Postemergence herbicidal rating IPOHE: 5.0
[18]; 0.016 kg/ha
  Postemergence herbicidal rating IPOHE: 5.0
[18]; 0.032 kg/ha
  Postemergence herbicidal rating IPOHE: 9.0
[18]; 0.062 kg/ha
  Postemergence herbicidal rating IPOHE: 9.0
AMBEL Ragweed, Common [19]; rate 0.016 kg/ha
  AMBEL herbicidal rating: 6.0
AMBEL Ragweed, Common [19]; rate 0.032 kg/ha
  AMBEL herbicidal rating: 9.0
AMBEL Ragweed, Common [19]; rate 0.062 kg/ha
  AMBEL herbicidal rating: 9.0
AMBEL Ragweed, Common [19]; rate 0.125 kg/ha
  AMBEL herbicidal rating: 9.0
ABUTH Velvetleaf [20]; rate 0.016 kg/ha
  ABUTH herbicidal rating: 9.0
ABUTH Velvetleaf [20]; rate 0.032 kg/ha
  ABUTH herbicidal rating: 9.0
ABUTH Velvetleaf [20]; rate 0.062 kg/ha
  ABUTH herbicidal rating: 9.0
ABUTH Velvetleaf [20]; rate 0.125 kg/ha
  ABUTH herbicidal rating: 9.0
GALAP Galium [21]; rate 0.016 kg/ha
  GALAP herbicidal rating: 0.0
GALAP Galium [21]; rate 0.032 kg/ha
  GALAP herbicidal rating: 0.0
GALAP Galium [21]; rate 0.062 kg/ha
  GALAP herbicidal rating: 9.0
GALAP Galium [21]; rate 0.125 kg/ha
  GALAP herbicidal rating: 9.0
[22]; rate 0.016 kg/ha
  IPOHE herbicidal rating: 3.0
[22]; rate 0.032 kg/ha
  IPOHE herbicidal rating: 3.0
[22]; rate 0.062 kg/ha
  IPOHE herbicidal rating: 9.0
[22]; rate 0.125 kg/ha
  IPOHE herbicidal rating: 9.0
GALAP Galium [23]; 0.008 kg/ha
  Postemergence herbicidal rating GALAP: 0.0
GALAP Galium [23]; 0.016 kg/ha
  Postemergence herbicidal rating GALAP: 3.0
GALAP Galium [23]; 0.032 kg/ha
  Postemergence herbicidal rating GALAP: 3.0
GALAP Galium [23]; 0.062 kg/ha
  Postemergence herbicidal rating GALAP: 4.0
SETVI Foxtail, Green [24]; 0.008 kg/ha
  Postemergence herbicidal rating SETVI: 2.0
SETVI Foxtail, Green [24]; 0.016 kg/ha
  Postemergence herbicidal rating SETVI: 5.0
SETVI Foxtail, Green [24]; 0.032 kg/ha
  Postemergence herbicidal rating SETVI: 7.0
SETVI Foxtail, Green [24]; 0.062 kg/ha
  Postemergence herbicidal rating SETVI: 9.0
